Reference: ChEMBL document CHEMBL1201862, “PubChem BioAssay data set” (2004)
Activity calls are given as the source filed them.

Key:
[1] = viability loss in THP-1 monocytes – THP-1 cells, cytotoxicity control for Vif-APOBEC3G degradation inhibitor project, dose response (AID 1117359); type: functional; conditions: THP-1
[2] = HIV-1 Vif–A3G interaction blockers – biochemical, TR-FRET, GST-Vif 1-94, biotin-A3G peptide, dose response retest, primary screen (AID 1117319); type: functional;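 further: TR-FRET signal of purified GST-Vif binding a biotinylated A3G peptide; inhibitors lower the FRET signal by blocking Vif and A3G binding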
[3] = molecular target: T1, Heat shock factor protein 1 (Mus musculus, UniProt P38532); test: decrease of HSF1-responsive luciferase luminescence – cell-based, NIH3T3, dose retest, confirmation (AID 2382); type: functional;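 further: NIH3T3 fibroblasts with HSF1-driven luciferase reporter stressed by proteasome inhibitor MG132; luminescence from HSF1-driven luciferase expression after 8 hours of MG132 stress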
T1 sequence (P38532 whole entry): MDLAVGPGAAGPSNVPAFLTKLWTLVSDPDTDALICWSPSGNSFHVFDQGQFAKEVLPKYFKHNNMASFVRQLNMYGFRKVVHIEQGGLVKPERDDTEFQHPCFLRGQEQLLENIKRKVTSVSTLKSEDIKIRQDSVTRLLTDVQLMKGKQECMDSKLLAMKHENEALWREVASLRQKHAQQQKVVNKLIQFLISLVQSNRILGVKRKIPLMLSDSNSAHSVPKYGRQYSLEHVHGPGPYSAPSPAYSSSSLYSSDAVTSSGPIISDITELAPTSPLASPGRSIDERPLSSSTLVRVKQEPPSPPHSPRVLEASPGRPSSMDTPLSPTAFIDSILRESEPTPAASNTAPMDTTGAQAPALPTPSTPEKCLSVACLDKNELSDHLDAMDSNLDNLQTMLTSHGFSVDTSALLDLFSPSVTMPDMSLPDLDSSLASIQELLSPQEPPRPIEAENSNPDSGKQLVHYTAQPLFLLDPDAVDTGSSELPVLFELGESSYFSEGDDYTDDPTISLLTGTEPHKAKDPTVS

HEK293 = test: cells; type: functional, cell-based; conditions: Homo sapiens
[4] = molecular target: T2, Nuclear receptor subfamily 0 group B member 1 (Homo sapiens, UniProt P51843); test: Luminescence-based cell-based high throughput dose response assay for inhibitors of the orphan nuclear receptor subfamily 0, group B, member 1 (DAX1; NR0B1). [Related pubchem assays (depositor defined):AID504766, AID504790]; type: functional
T2 sequence (P51843 whole entry): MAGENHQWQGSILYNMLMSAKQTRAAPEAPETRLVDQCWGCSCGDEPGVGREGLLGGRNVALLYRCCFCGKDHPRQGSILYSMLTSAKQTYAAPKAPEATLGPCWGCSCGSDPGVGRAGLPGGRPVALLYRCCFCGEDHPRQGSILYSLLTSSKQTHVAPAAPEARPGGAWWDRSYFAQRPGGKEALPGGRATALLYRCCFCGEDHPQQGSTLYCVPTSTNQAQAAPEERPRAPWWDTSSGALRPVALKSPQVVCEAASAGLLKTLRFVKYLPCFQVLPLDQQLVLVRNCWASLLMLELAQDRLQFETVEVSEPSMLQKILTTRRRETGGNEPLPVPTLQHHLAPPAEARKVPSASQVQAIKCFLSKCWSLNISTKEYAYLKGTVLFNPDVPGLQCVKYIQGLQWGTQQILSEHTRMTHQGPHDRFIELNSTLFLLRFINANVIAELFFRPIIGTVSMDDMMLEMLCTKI

[5] = microbe, parasite or virus in culture; type: functional; conditions: Mycobacterium tuberculosis
[6] = THP-1 cell cytotoxicity, dose response, cytotoxicity control for non-replicating M. tuberculosis project (AID 489025); type: functional
[7] = Vero E6 cell cytotoxicity, dose response, cytotoxicity control for non-replicating M. tuberculosis project, secondary assay (AID 492998); type: functional, VeroE6; conditions: Vero C1008
cells = type: functional
[8] = molecular target: Peroxisome proliferator-activated receptor gamma/Nuclear receptor coactivator 1 (Homo sapiens, UniProt P37231); test: (§1) TR-FRET dose response biochemical High Throughput Screening assay for agonists of the steroid receptor coactivator 1 (SRC-1) recruitment by the peroxisome proliferator-activated receptor gamma (PPAR gamma): non-selective agonists. [Related pubchem assays (depositor defined):AID1300, AID1808, AID504735, AID631]; type: protein assay
[9] = molecular target: Peroxisome proliferator-activated receptor gamma/Nuclear receptor coactivator 3 (Homo sapiens, UniProt P37231); test: as §1, with “3 (SRC-3)” for “1 (SRC-1)”, “assays: 1301 (Confirmation screen.), 1048 (Primary screen.)]” for “assays (depositor defined):AID1300, AID1808, AID504735, AID631]”; type: functional
[10] = molecular target: Peroxisome proliferator-activated receptor gamma/Nuclear receptor coactivator 2 (Homo sapiens, UniProt P37231); test: TR-FRET dose response biochemical High Throughput Screening assay for agonists of the steroid receptor coactivator 2 (SRC-2) recruitment by the peroxisome proliferator-activated receptor gamma (PPAR gamma): non-selective agonists. [Related pubchem assays: 1297, 1032 ]; type: functional
[11] = molecular target: FAD-linked sulfhydryl oxidase ALR (Homo sapiens, UniProt P55789); test: ALR-catalysed DTT oxidation blockers – biochemical, H2O2 detection, luminescence, cherry-pick, dose response (AID 493248)
Aminopeptidase N = molecular target: T3, Aminopeptidase N (Plasmodium falciparum FcB1/Columbia, UniProt O96935); test: malaria alanyl aminopeptidase activity blockers – biochemical, fluorogenic H-Leu-NHMec substrate, 1536-well (AID 1445); parameters: species or system Plasmodium falciparum 3D7, 3D7
T3 sequence (O96935 whole entry): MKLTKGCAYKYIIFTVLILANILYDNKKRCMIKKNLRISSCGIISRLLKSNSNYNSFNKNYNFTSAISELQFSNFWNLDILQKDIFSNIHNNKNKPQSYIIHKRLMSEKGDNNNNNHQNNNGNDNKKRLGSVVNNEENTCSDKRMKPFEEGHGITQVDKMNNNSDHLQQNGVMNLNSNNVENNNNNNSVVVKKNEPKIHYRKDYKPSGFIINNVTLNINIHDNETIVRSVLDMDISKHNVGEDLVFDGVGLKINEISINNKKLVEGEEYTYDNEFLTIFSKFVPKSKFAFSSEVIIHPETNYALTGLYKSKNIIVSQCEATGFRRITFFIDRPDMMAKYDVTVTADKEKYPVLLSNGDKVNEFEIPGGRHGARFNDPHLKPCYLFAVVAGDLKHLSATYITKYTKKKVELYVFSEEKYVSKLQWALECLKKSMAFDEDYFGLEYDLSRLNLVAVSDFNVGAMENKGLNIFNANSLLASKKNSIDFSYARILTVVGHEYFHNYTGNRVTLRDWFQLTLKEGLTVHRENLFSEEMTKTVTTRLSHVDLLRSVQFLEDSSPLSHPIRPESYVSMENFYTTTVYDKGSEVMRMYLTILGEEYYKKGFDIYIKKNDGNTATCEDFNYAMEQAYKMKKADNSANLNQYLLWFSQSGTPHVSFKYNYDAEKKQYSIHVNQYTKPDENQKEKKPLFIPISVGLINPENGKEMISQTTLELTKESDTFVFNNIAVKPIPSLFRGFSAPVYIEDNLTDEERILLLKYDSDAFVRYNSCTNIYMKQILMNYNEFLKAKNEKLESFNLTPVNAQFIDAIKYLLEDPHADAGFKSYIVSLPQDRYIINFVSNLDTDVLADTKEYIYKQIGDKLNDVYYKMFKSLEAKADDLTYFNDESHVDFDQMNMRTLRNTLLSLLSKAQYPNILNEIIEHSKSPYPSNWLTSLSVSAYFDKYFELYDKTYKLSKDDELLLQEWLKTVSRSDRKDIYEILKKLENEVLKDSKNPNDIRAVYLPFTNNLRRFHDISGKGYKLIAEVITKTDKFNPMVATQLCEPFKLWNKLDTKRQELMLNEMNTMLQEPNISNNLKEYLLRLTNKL

[12] = viability of PTEN-deleted HCT116 cells – cell-based, HCT116 PTEN knockout, dose response (AID 1047); type: functional;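 further: HCT116 colon tumor cells with PTEN knocked out; cells exposed to compound for 60 hours before readout; potency for loss of cell viability measured by luminescence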
[13] = viability of HCT116 lacking mutant beta-catenin – cell-based, human colon tumor, dose response (AID 1045); type: functional;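 further: HCT116 colon tumor cells with beta catenin knocked out; cells exposed to compound for 60 hours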
Leucine aminopeptidase = molecular target: T4, Leucine aminopeptidase (Plasmodium falciparum 3D7, UniProt Q8IL11); test: P. falciparum M17LAP inhibitors, primary screen, biochemical, fluorogenic H-Leu-NHMec substrate, 1536-well (AID 1619); type: functional
T4 sequence (Q8IL11 whole entry): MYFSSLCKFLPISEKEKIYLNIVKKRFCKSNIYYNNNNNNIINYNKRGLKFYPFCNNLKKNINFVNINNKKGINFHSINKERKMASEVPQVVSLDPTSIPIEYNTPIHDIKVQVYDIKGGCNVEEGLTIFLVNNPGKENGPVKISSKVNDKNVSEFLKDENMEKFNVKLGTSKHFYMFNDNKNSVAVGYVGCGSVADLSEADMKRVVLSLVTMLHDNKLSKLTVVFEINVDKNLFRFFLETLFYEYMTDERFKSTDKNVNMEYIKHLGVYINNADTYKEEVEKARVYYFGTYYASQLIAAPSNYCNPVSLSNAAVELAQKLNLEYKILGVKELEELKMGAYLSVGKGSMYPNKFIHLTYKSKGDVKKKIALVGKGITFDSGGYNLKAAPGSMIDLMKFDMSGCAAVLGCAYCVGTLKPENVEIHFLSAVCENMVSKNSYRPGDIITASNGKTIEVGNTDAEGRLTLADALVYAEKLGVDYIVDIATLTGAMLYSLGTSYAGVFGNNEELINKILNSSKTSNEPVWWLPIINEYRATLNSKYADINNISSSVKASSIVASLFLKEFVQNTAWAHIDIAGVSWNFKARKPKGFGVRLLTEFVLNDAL

[14] = molecular target: T5, Mannose-6-phosphate isomerase (Homo sapiens, UniProt P34949); test: MPI inhibition at elevated mannose 6-phosphate – biochemical, fluorescence intensity, high mannose 6-phosphate, primary screen (AID 1220)
T5 sequence (P34949 whole entry): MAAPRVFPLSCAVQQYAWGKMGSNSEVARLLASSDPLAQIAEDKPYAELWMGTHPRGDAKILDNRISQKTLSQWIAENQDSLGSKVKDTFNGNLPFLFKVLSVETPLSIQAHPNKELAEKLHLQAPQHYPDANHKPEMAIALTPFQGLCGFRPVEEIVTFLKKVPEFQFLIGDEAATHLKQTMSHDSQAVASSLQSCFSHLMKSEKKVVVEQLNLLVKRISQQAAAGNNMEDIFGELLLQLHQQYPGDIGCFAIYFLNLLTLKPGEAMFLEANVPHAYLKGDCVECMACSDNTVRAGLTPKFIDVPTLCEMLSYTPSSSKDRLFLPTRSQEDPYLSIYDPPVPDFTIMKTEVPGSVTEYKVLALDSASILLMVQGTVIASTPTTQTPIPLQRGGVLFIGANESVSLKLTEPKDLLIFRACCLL

[15] = molecular target: T6, Rac GTPase-activating protein 1 (Homo sapiens, UniProt Q9H0H5); test: blockers of MgcRacGAP-driven Rac1 GTP hydrolysis – biochemical, ADP Hunter fluorescence, primary and confirmatory, confirmation (AID 624330); type: functional
T6 sequence (Q9H0H5 whole entry): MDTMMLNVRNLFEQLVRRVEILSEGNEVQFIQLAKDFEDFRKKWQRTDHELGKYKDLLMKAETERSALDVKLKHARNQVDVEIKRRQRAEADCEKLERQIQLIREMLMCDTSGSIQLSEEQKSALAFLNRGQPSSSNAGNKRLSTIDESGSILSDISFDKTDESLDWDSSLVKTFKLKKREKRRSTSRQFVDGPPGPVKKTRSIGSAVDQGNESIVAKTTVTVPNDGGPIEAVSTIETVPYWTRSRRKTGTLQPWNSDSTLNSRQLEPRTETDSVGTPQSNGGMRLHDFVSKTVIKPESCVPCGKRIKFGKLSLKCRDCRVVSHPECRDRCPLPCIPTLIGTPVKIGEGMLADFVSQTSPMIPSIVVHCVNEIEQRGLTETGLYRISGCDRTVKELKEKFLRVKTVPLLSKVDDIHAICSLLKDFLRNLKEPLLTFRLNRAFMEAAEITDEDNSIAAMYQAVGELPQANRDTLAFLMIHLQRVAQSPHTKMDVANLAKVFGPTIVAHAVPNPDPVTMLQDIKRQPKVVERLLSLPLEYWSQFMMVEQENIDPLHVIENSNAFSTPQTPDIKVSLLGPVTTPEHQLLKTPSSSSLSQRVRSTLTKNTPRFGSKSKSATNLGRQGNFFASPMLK

Genome polyprotein = Genome polyprotein (dengue virus type 2, UniProt P29990); test: flavivirus cap methylation enzyme inhibition – biochemical, confirmation dose response, primary screen (AID 588689); type: functional
Chain of Genome polyprotein (P29990 2492-3391 limits assumed): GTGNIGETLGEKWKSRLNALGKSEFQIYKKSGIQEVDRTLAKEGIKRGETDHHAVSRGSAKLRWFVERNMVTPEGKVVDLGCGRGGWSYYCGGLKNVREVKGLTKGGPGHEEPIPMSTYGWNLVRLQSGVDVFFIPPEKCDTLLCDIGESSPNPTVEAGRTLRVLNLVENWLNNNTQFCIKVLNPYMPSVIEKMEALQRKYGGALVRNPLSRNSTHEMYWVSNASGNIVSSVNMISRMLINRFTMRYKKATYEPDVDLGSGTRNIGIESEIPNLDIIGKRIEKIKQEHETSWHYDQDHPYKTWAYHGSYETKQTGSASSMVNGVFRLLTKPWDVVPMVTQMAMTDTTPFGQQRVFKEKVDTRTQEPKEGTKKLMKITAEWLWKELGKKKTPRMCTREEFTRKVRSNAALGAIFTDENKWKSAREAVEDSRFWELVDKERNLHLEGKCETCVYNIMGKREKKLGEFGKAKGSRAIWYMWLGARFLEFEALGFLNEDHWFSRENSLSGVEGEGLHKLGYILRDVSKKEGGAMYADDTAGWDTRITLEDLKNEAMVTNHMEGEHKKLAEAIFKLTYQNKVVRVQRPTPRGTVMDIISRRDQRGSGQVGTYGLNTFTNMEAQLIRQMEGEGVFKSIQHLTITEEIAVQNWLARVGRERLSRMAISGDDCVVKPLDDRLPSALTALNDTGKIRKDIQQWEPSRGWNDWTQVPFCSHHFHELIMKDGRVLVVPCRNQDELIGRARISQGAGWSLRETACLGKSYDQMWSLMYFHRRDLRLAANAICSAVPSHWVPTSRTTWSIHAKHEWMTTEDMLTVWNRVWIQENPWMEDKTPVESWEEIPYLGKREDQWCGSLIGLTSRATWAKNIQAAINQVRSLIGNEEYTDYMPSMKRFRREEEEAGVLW

Chain of Peroxisome proliferator-activated receptor gamma/Nuclear receptor coactivator 3 (P37231 whole entry): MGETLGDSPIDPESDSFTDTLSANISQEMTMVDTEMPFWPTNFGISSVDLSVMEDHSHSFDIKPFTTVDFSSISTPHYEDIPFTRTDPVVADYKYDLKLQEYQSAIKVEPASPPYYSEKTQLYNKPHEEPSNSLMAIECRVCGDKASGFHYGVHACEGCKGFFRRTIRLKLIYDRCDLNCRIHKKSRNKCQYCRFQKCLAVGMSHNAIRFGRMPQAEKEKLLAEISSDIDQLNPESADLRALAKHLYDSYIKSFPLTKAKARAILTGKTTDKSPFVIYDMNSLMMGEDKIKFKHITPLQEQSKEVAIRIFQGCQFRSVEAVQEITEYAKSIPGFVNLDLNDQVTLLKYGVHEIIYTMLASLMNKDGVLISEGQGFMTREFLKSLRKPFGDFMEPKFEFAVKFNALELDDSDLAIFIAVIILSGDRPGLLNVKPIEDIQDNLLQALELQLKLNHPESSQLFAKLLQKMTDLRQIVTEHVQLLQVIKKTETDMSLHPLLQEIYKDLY
Chain of Peroxisome proliferator-activated receptor gamma/Nuclear receptor coactivator 3 (Q9Y6Q9 whole entry, further chain): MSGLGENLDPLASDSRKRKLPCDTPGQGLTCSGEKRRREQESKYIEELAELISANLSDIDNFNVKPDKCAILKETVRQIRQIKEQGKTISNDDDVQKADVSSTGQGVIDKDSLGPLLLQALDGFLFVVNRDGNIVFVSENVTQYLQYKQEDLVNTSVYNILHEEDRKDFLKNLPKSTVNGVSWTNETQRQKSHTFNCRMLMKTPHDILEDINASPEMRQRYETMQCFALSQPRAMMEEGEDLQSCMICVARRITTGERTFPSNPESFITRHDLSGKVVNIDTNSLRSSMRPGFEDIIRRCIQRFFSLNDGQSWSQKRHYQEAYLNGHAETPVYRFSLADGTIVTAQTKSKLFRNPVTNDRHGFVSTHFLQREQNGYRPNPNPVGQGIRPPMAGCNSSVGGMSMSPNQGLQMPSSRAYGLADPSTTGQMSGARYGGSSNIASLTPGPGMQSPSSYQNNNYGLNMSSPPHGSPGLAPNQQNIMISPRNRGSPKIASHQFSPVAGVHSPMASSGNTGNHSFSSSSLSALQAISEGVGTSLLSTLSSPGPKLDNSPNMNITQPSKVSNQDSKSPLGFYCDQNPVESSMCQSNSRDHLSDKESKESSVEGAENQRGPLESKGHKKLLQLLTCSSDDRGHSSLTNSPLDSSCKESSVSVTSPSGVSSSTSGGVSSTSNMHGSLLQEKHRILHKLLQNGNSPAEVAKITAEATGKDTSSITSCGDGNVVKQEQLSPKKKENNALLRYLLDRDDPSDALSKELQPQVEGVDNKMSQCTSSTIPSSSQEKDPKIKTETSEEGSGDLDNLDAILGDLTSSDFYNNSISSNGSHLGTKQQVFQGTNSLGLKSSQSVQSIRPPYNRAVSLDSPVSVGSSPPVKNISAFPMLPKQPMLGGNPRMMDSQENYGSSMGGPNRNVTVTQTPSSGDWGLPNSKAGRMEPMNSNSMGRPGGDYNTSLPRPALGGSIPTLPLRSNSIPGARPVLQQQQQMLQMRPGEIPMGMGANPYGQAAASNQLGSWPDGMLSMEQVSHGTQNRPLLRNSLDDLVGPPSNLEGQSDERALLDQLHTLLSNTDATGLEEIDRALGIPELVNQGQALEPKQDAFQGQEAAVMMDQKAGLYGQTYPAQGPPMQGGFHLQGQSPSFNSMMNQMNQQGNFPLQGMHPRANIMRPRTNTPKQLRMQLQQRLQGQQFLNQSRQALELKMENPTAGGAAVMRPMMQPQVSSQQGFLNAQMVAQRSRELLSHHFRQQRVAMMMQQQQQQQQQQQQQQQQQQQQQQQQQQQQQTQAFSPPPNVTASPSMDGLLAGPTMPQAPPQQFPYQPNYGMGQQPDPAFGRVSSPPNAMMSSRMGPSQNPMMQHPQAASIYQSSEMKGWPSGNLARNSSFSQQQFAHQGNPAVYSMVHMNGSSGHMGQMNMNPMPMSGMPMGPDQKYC
Chain of Peroxisome proliferator-activated receptor gamma/Nuclear receptor coactivator 2 (P37231 whole entry): as the sequence (P37231 whole entry) above
Chain of Peroxisome proliferator-activated receptor gamma/Nuclear receptor coactivator 2 (Q15596 whole entry, further chain): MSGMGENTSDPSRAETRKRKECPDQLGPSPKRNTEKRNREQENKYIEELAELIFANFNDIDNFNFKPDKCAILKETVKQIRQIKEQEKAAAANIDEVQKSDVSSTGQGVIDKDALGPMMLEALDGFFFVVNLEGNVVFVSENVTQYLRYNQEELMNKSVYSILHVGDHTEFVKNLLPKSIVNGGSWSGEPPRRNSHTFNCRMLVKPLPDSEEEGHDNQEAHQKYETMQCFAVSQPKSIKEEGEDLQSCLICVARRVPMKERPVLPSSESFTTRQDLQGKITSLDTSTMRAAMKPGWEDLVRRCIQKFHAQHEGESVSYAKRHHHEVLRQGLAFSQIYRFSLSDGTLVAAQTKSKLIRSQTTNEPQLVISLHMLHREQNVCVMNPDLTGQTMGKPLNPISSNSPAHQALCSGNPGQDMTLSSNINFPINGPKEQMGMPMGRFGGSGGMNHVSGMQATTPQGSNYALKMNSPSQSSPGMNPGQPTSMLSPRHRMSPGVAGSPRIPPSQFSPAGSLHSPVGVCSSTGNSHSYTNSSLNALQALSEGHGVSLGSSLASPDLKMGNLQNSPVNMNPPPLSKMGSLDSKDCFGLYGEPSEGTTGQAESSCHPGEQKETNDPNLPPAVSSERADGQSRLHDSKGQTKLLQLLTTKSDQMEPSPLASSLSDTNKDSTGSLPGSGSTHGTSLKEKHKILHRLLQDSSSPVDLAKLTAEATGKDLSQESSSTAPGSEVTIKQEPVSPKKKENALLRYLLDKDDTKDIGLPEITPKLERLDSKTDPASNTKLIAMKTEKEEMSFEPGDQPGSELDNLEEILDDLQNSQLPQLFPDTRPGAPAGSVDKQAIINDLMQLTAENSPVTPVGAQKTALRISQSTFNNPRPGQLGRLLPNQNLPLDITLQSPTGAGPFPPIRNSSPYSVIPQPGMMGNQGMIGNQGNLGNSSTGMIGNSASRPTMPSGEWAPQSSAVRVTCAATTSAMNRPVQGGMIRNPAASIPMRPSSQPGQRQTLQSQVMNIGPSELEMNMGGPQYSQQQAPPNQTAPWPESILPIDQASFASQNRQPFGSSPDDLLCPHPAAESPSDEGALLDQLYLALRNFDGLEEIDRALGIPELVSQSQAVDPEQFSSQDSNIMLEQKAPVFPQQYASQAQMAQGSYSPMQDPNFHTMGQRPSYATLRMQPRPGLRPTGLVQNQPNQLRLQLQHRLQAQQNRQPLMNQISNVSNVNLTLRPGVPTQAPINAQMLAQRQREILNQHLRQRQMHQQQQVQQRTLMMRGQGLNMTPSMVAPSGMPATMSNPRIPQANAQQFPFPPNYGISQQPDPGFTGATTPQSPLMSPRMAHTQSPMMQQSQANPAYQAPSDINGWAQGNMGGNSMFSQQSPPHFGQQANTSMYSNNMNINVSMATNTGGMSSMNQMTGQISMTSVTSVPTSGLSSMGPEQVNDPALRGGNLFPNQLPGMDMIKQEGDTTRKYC
Chain of FAD-linked sulfhydryl oxidase ALR (P55789 whole entry): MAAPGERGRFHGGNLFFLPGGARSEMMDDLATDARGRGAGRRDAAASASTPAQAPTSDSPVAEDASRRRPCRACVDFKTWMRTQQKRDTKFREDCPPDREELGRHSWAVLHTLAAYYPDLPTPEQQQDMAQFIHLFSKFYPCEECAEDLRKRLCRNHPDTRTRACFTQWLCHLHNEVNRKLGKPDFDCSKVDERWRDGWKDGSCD

## COc1ccc(NC(=O)/C(C#N)=C/c2ccc(Sc3nncn3C)c([N+](=O)[O-])c2)cc1
[1]
  CC50: > 40 µM (active)
[2]
  IC50: > 100 µM (active)

## CC1(C)Cc2c(sc3nc(C4CC4)n(N)c(=O)c23)CO1
[3]
  EC50: > 195 µM (not active)
HEK293
  IC50: > 67.6 µM (inactive)
[4]
  IC50: > 67.6 µM (inactive)

## O=C(CCN1C(=O)/C(=C/c2ccccc2Cl)SC1=S)N1CCCC1
[5]
  CC50: 8.2 µM (active)
[6]
  CC50: 19.7 µM (active)
[7]
  CC50: 11.4 µM (active)
cells
  IC50: 28.4 µM (active)

## COc1ccc(Br)cc1-c1nc(CCl)cs1
[8]
  EC50: 9.93 µM (active)
[9]
  EC50: > 79.4 µM (not active)
[10]
  EC50: 5.52 µM (active)
[11]
  AC50: 14.1 µM (active)

## CC(Sc1nc(N2CCCCC2)c2c(c1C#N)CCCC2)C(=O)O (centres undefined)
[8]
  EC50: 33.9 µM (inactive)
[9]
  EC50: > 79.4 µM (not active)
[10]
  EC50: 64.9 µM (not active)

## COc1ccc([N+](=O)[O-])cc1NC(=S)NC(C)=O
HEK293
  IC50: > 67.6 µM (inactive)
[4]
  IC50: > 67.6 µM (inactive)

## CCc1c(C)c2ccc(O)c(CN(C)C)c2oc1=O
Aminopeptidase N
  IC50: 28.9 µM (active)

## Cc1cc(NC(=O)C2CCCCC2)n(-c2nc3ccccc3[nH]2)n1
[12]
  EC50: 16.9 µM (active)
[13]
  EC50: 13.6 µM (active)
[6]
  CC50: > 40 µM (active)
[7]
  CC50: > 20 µM (active)
cells
  IC50: 5.56 µM (active)

## COc1ccccc1NC(=O)N1CCCC(C(=O)Nc2cccc(C)c2C)C1 (centres undefined)
HEK293
  IC50: > 67.6 µM (inactive)
[4]
  IC50: > 67.6 µM (inactive)

## Cc1cc(=O)c2c(O)c(O)ccc2o1
Leucine aminopeptidase
  IC50: 110 µM (active)
[14]
  IC50: > 50 µM (not active)
[15]
  IC50: 32.2 µM (active)
[2]
  IC50: > 100 µM (active)

## C#CCOC(=O)C[N+](C)(C)CC#Cc1ccccc1
HEK293
  IC50: > 67.6 µM (inactive)
[4]
  IC50: > 67.6 µM (inactive)

## O=C(O)COc1ccccc1/C=N/Nc1ccc(S(=O)(=O)Nc2ccc(Cl)cc2)cc1[N+](=O)[O-]
Aminopeptidase N
  IC50: 38.9 µM (active)
Genome polyprotein
  IC50: 36.7 µM (active)
